Reference: ChEMBL document CHEMBL5634165, “Design, synthesis and activity evaluation of quinolinone derivatives as EZH2 inhibitors” (Bioorg Med Chem Lett, 2024)
Activity calls are given as the source filed them. No cut-off for these calls is given here.

Key:
A549 [1] = test: Induction of apoptosis in human A549 cells assessed as early apoptotic cells incubated for 24 hrs by Annexin V/PI staining based flow cytometry analysis (reference value: 1.17 %); type: functional
[2] = biological target: T1, Histone-lysine N-methyltransferase EZH2 (Homo sapiens, UniProt Q15910); test: Inhibition of EZH2 (unknown origin)
Target sequence in this assay (Q15910 whole entry): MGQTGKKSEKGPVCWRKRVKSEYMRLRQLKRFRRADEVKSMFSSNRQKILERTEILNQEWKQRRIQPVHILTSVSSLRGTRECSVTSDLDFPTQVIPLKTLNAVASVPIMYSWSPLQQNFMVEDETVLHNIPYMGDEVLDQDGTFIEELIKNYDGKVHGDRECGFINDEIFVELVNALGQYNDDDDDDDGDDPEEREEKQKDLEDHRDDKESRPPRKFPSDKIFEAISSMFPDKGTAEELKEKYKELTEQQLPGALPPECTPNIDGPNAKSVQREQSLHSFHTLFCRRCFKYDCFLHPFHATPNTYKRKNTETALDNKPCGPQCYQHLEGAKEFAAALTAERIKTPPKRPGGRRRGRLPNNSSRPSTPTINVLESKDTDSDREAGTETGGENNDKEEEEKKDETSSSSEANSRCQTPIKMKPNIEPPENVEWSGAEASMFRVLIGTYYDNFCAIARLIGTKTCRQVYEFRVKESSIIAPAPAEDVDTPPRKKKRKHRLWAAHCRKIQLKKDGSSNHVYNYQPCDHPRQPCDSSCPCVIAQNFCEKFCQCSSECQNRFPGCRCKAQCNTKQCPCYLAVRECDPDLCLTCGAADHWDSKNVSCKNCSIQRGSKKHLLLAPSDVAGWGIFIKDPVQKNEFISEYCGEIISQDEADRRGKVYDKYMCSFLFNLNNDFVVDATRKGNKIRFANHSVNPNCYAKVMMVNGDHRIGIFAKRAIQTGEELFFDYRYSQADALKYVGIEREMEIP

HeLa [3] = test: Antiproliferative activity against human HeLa cells by MTT assay; type: functional, cell-based
HeLa [4] = test: Inhibition of colony formation in human HeLa cells assessed as clone formation rate relative to control; type: functional; parameters: scale not given: the % may be the effect or the level left
HeLa [5] = test: Induction of apoptosis in human HeLa cells assessed as nectrotic cells by Annexin V/PI staining based flow cytometry analysis (reference value: 0.782 %); type: functional
A549 [6] = test: Induction of apoptosis in human A549 cells assessed as necrotic cells incubated for 24 hrs by Annexin V/PI staining based flow cytometry analysis (reference value: 1.35 %); type: functional
[7] = biological target: T1, Histone-lysine N-methyltransferase EZH2; test: Inhibition of EZH2 in human A549 cells assessed as reduction in H3K27me3 expression level at 3 uM incubated for 72 hrs by Western blotting analysis; type: cell-based
Target sequence in this assay (Q15910 whole entry, looked up): as the sequence (Q15910 whole entry) above

HeLa [8] = test: Inhibition of cell migration in human HeLa cells assessed as reduction of cell scratch width incubated for 24 hrs; type: functional, cell-based
HeLa [9] = test: Induction of apoptosis in human HeLa cells assessed as late apoptotic cells by Annexin V/PI staining based flow cytometry analysis (reference value: 6.46 %); type: functional
[10] = biological target: Histone-lysine N-methyltransferase EZH2 (Homo sapiens, UniProt Q15910, Y641F); test: Inhibition of EZH2 Y641F mutant (unknown origin)
Chain of Histone-lysine N-methyltransferase EZH2 (Homo sapiens, UniProt Q15910, Y641F) (Q15910 whole entry Y641F): as the sequence (Q15910 whole entry) above, with Y641F counted along it

A549 [11] = test: Induction of apoptosis in human A549 cells assessed as viable cells incubated for 24 hrs by Annexin V/PI staining based flow cytometry analysis (reference value: 91.6 %); type: functional
A549 [12] = test: cells; conditions: Homo sapiens
Description: Antiproliferative activity against human A549 cells by MTT assay

A549 [13] = test: Inhibition of colony formation in human A549 cells assessed as clone formation rate relative to control; type: functional; parameters: concentration or dose not given beside the values
HeLa [14] = test: Induction of apoptosis in human HeLa cells assessed as early apoptotic cells by Annexin V/PI staining based flow cytometry analysis (reference value: 1.72 %); type: functional
A549 [15] = test: Induction of apoptosis in human A549 cells assessed as late apoptotic cells incubated for 24 hrs by Annexin V/PI staining based flow cytometry analysis (reference value: 5.03 %); type: functional
HeLa [16] = test: Induction of apoptosis in human HeLa cells assessed as viable cells by Annexin V/PI staining based flow cytometry analysis (reference value: 91.0 %); type: functional
[17] = biological target: T1, Histone-lysine N-methyltransferase EZH2; test: Inhibition of EZH2 in human A549 cells assessed as reduction in H3K27me3 expression level incubated for 72 hrs by Western blotting analysis; type: cell-based; conditions: dose 1-3 µM
Target sequence in this assay (Q15910 whole entry, looked up): as the sequence (Q15910 whole entry) above

Work on `COc1cc(-c2cc(C(=O)NCc3c(C)cc(C)[nH]c3=O)c3ccc(=O)[nH]c3c2)ccc1F` yielded an Activity (A549 [1]) of 3.63%, an IC50 [2] of 0.94 nM and an IC50 (HeLa [3]) of 18400 nM. It also gave an Activity (HeLa [4]) of 39%, an Activity (HeLa [5]) of 4.32% and an Activity (A549 [6]) of 0.8%. The inhibition [7] was “Active”, the inhibition (HeLa [8]) was “Active” and the Activity (HeLa [9]) was 33.3%. It also gave an IC50 [10] of 5.43 nM, an Activity (A549 [11]) of 78.2% and an IC50 (A549 [12]) of 12300 nM. It also gave an Activity (A549 [13]) of 46%, an Activity (HeLa [14]) of 5.85% and an Activity (A549 [15]) of 17.3%. It also gave an Activity (HeLa [16]) of 58.5%.

`Cc1cc(C)c(CNC(=O)c2cc(-c3ccc(-c4ccccc4)cc3)cc3[nH]c(=O)ccc23)c(=O)[nH]1` showed an Activity (A549 [1]) of 10.1%, an IC50 [2] of 1.67 nM and an IC50 (HeLa [3]) of 29400 nM. The Activity (A549 [6]) was 3.6%, the IC50 [10] was 7.4 nM and the Activity (A549 [11]) was 38.4%. It also gave an IC50 (A549 [12]) of 13400 nM, an Activity (A549 [13]) of 42% and an Activity (A549 [15]) of 47.3%.

`Cc1cc(C)c(CNC(=O)c2cc(-c3ccccc3)cc3[nH]c(=O)ccc23)c(=O)[nH]1` showed an IC50 [2] of 6.27 nM, an IC50 (HeLa [3]) of 43200 nM and an IC50 [10] of 10.3 nM. For the same molecule, the IC50 (A549 [12]) was 19600 nM.

`COc1cccc(OC)c1-c1cc(C(=O)NCc2c(C)cc(C)[nH]c2=O)c2ccc(=O)[nH]c2c1` showed an IC50 [2] of 5.84 nM, an IC50 (HeLa [3]) of over 50000 nM and an IC50 [10] of 8.87 nM. For the same molecule, the IC50 (A549 [12]) was 38300 nM.

`Cc1ccc(-c2cc(C(=O)NCc3c(C)cc(C)[nH]c3=O)c3ccc(=O)[nH]c3c2)cc1` gave an IC50 [2] of 2.74 nM, an IC50 (HeLa [3]) of 33800 nM and an IC50 [10] of 7.76 nM. It also gave an IC50 (A549 [12]) of 27600 nM.

`Cc1cc(C)c(CNC(=O)c2cc(-c3ccc(C(=O)O)cc3)cc3[nH]c(=O)ccc23)c(=O)[nH]1` showed an IC50 [2] of 2.12 nM, an IC50 (HeLa [3]) of 20400 nM and an Activity (HeLa [4]) of 49%. The IC50 [10] was 6.45 nM, the IC50 (A549 [12]) was 12800 nM and the Activity (A549 [13]) was 58%.

Molecule `Cc1cc(C)c(CNC(=O)c2cc(-c3ccc4ncccc4c3)cc3[nH]c(=O)ccc23)c(=O)[nH]1` has an IC50 [2] of 8.23 nM, an IC50 (HeLa [3]) of over 50000 nM and an IC50 [10] of 11.7 nM. The IC50 (A549 [12]) was over 50000 nM.

Molecule `CCN(c1cc(-c2ccc(CN3CCOCC3)cc2)cc(C(=O)NCc2c(C)cc(C)[nH]c2=O)c1C)C1CCOCC1` [TAZEMETOSTAT] has an Activity (A549 [1]) of 2.3%, an IC50 (HeLa [3]) of 27700 nM and an Activity (HeLa [4]) of 47%. For the same molecule, the Activity (HeLa [5]) was 1.2%, the Activity (A549 [6]) was 10.8% and the Activity (HeLa [9]) was 19.6%. The Activity (A549 [11]) was 34.3%, the IC50 (A549 [12]) was 15800 nM and the Activity (A549 [13]) was 45%. It also gave an Activity (HeLa [14]) of 5.21%, an Activity (A549 [15]) of 52.6% and an Activity (HeLa [16]) of 74%.

`COc1ccc2cc(-c3cc(C(=O)NCc4c(C)cc(C)[nH]c4=O)c4ccc(=O)[nH]c4c3)ccc2c1` gave an IC50 [2] of 6.63 nM, an IC50 (HeLa [3]) of over 50000 nM and an IC50 [10] of 7.48 nM. For the same molecule, the IC50 (A549 [12]) was 20600 nM.

`Cc1cc(C)c(CNC(=O)c2cc(-c3ccc(Br)cc3)cc3[nH]c(=O)ccc23)c(=O)[nH]1` gave an Activity (A549 [1]) of 12.4%, an IC50 [2] of 1.01 nM and an IC50 (HeLa [3]) of 25300 nM. The Activity (HeLa [4]) was 45%, the Activity (A549 [6]) was 1.07% and the inhibition (HeLa [8]) was “Active”. The Activity (HeLa [9]) was 16.5%, the IC50 [10] was 5.68 nM and the Activity (A549 [11]) was 34.7%. For the same molecule, the IC50 (A549 [12]) was 11000 nM, the inhibition [17] was “Dose-Dependent Effect” and the Activity (A549 [13]) was 40%. For the same molecule, the Activity (HeLa [14]) was 4.72% and the Activity (A549 [15]) was 51.8%.

Molecule `Cc1cc(C)c(CNC(=O)c2cc(-c3cccnc3)cc3[nH]c(=O)ccc23)c(=O)[nH]1` has an IC50 [2] of 3.78 nM, an IC50 (HeLa [3]) of 47400 nM and an IC50 [10] of 8.54 nM. The IC50 (A549 [12]) was 24300 nM.

Molecule `COc1c(C)cccc1-c1cc(C(=O)NCc2c(C)cc(C)[nH]c2=O)c2ccc(=O)[nH]c2c1` has an IC50 [2] of 4.21 nM, an IC50 (HeLa [3]) of over 50000 nM and an IC50 [10] of 10.4 nM. For the same molecule, the IC50 (A549 [12]) was 35700 nM.

For `Cc1cc(C)c(CNC(=O)c2cc(-c3cccc4ccccc34)cc3[nH]c(=O)ccc23)c(=O)[nH]1`, the IC50 [2] was 7.42 nM, the IC50 (HeLa [3]) was over 50000 nM and the IC50 [10] was 12.2 nM. It also gave an IC50 (A549 [12]) of 30300 nM.

For `Cc1cc(C)c(CNC(=O)c2cc(-c3ccc(Oc4ccccc4)cc3)cc3[nH]c(=O)ccc23)c(=O)[nH]1`, the IC50 [2] was 8.21 nM, the IC50 (HeLa [3]) was 46300 nM and the IC50 [10] was 9.41 nM. For the same molecule, the IC50 (A549 [12]) was over 50000 nM.
